Measurements taken from PMC6396489 (Cell Communication and Signaling : CCS, 2019).
Changes are numbered by the printed parent chain. pEC50: −log10 of the molar value.

Columns and labels:
Shp1 and Src = tested on: T1, Shp1 and Src; assay: Acceptor photobleaching FRET of Shp1-CFP and Src-YFP; assay type: cell-based; conditions: 50 μM for 5 min
T1 construct: expressed in transfected cells; host or cells: NIH3T3
Method: Acceptor photobleaching (apFRET) experiments were carried out with Leica SP5 confocal microscope, as follows: for CFP (donor) fluorescence detection, excitation at 458 nm and fluorescence detected at 470–490 nm. For YFP bleaching, a 514 nm argon laser was used. apFRET was measured by increase in CFP fluorescence intensity before (IDA) and after (ID) YFP photobleaching. To ensure reproducibility and reliability of CFP fluorescence measurements in the absence of acceptor (ID), YFP was photobleached to 10% of its initial fluorescence. The FRET efficiency was calculated as E = (ID − IDA)/ ID .

[1] = biological target: T2, Shp1 S118A/R138E/S140A mutant (Homo sapiens, UniProt P29350, R136E/S116A/S138A); assay: Trp fluorescence emission spectroscopy of Shp1 S118A/R138E/S140A mutant; assay type: binding; conditions: S118A/R138E/S140A vs wild type
T2 construct: a tailless-form of Shp1 (residues 1–529) has previously been used [25] and it is used also in this study; 6xHis (N); made in house; host or cells: E. coli BL21(DE3)
T2 sequence (P29350 1-529 isoform P29350-3 S118A/R138E/S140A): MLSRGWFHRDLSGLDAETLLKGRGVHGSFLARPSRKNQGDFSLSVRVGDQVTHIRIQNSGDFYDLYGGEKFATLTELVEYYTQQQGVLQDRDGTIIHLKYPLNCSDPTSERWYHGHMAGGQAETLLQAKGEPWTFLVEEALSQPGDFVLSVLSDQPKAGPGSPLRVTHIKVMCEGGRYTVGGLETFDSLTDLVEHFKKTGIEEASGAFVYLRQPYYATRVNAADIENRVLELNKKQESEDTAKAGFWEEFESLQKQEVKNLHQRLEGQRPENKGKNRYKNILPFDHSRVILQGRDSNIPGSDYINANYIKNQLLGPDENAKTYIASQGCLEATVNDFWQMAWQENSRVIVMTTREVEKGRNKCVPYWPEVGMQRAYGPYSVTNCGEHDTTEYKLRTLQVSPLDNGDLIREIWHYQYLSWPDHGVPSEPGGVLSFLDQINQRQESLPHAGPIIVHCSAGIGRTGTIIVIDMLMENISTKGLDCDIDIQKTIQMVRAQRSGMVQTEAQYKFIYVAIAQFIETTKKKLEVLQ
Method: (§1) The absorption spectra of Shp1 were recorded using a Varian Cary 1 spectrophotometer. Steady-state fluorescence emission measurements were performed with a K2 fluorometer (ISS, Champaign, IL, USA) equipped with a two-cell temperature-controlled sample holder. To selectively excite Trp residues, the excitation wavelength was set at 295 nm with a slit width of 1 nm. To avoid the inner-filter effect, all steady-state fluorescence measurements were performed on Shp1 with optical densities at 295 nm less than 0.1 OD. All measurements were made at 25 °C with the temperature of the samples determined in the cuvette with an accuracy of ±0.2 °C. For each experiment, the Shp1 concentration was fixed at 1.2 μM, while GroPIns4P was varied from 0.0 to 5.0 μM. Thus, a 500 μL solution containing 1.2 μM Shp1 dissolved in PBS pH 7.4 was titrated by successive additions of GroPIns4P (dissolved in PBS buffer, pH 7.4). After each addition, the samples were incubated for 2 min and fluorescence emission spectra were recorded between 310 and 410 nm in triplicate. To exclude the influence of sample dilution, fluorescence titration experiments were performed by adding the same amount of PBS buffer in the total volume (500 μL).

Shp1 [2] = biological target: T3, Shp1 (Homo sapiens, UniProt P29350); assay: Steady-state Trp fluorescence emission spectroscopy of purified Shp1; assay type: binding
T3 construct: the C-terminal truncated form of human Shp1 cDNA (His-Shp1; amino acids 1–529); made in house; host or cells: E. coli BL21(DE3)
T3 sequence (P29350 1-529 isoform P29350-3): T2 sequence (P29350 1-529 isoform P29350-3 S118A/R138E/S140A) with A118S, E138R, A140S
Method: as §1

Shp1 [3] = biological target: T3, Shp1; assay: SPR competition assay with free GroPIns4P; conditions: Shp1 1.2 μM; read-out: EC50 of competition with Shp1 binding to GroPIns4P-Bio chip
Method: For the competition experiments, SPR assays were performed at a fixed concentration of Shp1 (1.2 μM) in the presence of increasing concentrations of GroPIns4P (0.0 to 5.0 μM). Both Shp1 and GroPIns4P were dissolved in HBS-EP buffer and incubated for 10 min before injection onto the SA sensor chip. The flow was fixed to 20 μL/min, and the time of injection was 3 min. A solution of 2.0 mM glycine/HCl, pH 3.0, was used in the regeneration step to remove the analyte bond before reusing the sensor chip.

Shp1 [4] = biological target: T3, Shp1; assay: In-vitro dephosphorylation of Src by recombinant Shp1; assay type: biochemical; conditions: 50 μM, 10 min at 37 °C
Method: The immunoprecipitates were washed three times with lysis buffer, three times with lysis buffer without phosphatase inhibitors, and twice with phosphatase buffer (100 mM Na-Hepes, pH 7.4, 150 mM NaCl, 1 mM EDTA, and 10 mM DTT). The immunoprecipitates were then split equally into different tubes for treatment with Shp1 or buffer only. The treatment consisted of the addition of 2 μg of Shp1 to the immunoprecipitates in the absence or presence of 50 μM GroPIns4P and an incubation at 37 °C for different times. The reactions were terminated by the addition of concentrated SDS-sample buffer.

## O=P(O)(O)OC1C(O)C(O)C(OP(=O)(O)OCC(O)CO)C(O)C1O (stereo not shown) [GroPIns4P, glycerophosphoinositol 4-phosphate]
Shp1 and Src; lamellar regions
  FRET efficiency in hot spots: over 20%
Shp1 and Src; over the cells
  average FRET efficiency: 9%
[1]
  decrease of binding efficiency of the mutated protein: up to 50%
Shp1 [2]; Shp1 1.2 μM, GroPIns4P 0.0 to 5.0 μM, emission at 332 nm, read-out: apparent EC50 of Trp fluorescence quenching
  pEC50: ~6.22
Shp1 [2]; at 5 μM GroPIns4P
  maximal quenching of the initial emission: 18%
Shp1 [3]
  pEC50: ~6.10
Shp1 [4]
  effect on Shp1 phosphatase activity against immunopurified Src (pTyr530): stimulated Shp1 activity and induced Src dephosphorylation
